One assay deals with GluN3B LBD. Also noted: method as in PMID 18636091. The note with it: cited from earlier work.
The next assay deals with parallel fiber EPSCs. To be noted: inhibitory effect on parallel fiber EPSCs; read-out: apparent EC50; cited from earlier work.
A further assay concerns the target T1, GluD2-Lc(A686S) (Rattus norvegicus, UniProt Q63226, A654T/A686S).
T1 construct: the function of full-length receptors as well, we introduced them into the GluD2 lurcher mutant (GluD2-Lc); expressed in transfected cells; host or cells: Xenopus laevis oocytes injected with cRNA
T1 sequence (Q63226 24-1007 A654T/A686S): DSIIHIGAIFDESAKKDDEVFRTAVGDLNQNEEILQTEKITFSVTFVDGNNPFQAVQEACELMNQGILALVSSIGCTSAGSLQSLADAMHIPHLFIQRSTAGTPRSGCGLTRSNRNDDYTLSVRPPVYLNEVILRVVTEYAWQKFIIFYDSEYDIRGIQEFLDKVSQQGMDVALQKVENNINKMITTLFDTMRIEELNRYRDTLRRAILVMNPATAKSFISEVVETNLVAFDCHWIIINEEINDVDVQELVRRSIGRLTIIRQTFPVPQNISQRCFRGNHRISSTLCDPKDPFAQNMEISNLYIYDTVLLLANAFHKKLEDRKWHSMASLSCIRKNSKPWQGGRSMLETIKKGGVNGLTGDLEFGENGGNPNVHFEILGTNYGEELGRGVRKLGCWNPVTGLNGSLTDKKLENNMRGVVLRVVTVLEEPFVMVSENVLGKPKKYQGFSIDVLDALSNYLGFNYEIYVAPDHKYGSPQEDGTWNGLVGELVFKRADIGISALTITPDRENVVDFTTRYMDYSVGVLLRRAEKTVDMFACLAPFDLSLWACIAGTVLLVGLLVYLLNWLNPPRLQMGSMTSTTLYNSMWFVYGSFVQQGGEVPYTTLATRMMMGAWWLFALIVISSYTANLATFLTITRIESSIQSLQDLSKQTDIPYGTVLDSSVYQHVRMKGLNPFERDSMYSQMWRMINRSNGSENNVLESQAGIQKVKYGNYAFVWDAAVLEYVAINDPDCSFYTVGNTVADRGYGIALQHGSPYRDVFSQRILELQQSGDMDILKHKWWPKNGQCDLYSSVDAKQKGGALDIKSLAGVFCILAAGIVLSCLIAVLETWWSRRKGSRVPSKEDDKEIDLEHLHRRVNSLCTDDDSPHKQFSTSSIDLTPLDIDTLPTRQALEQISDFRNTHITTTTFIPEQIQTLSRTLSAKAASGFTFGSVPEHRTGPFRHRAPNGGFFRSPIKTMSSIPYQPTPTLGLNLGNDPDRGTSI
Kind of assay: Two-electrode voltage clamp in Xenopus oocytes, inhibition of spontaneous currents. The note with it: fraction of spontaneous current inhibited by saturating D-serine. The assay is classed as cell-based. The source says:
(§1) All cDNAs for expression in Xenopus oocytes were cloned into the vector pSGEM[30]. Point mutants of GluD2-Lc were constructed by overlap extension PCR with mutagenic oligonucleotide primers. The GluD2-Lc-(H)GluN1 chimera was constructed by transferring the S1- and S2-encoding sequences from GluD2-LBD-(H)GluN1 to GluD2-Lc via overlap extension PCR using tail primers. The S1 and S2 sequences were transferred separately, yielding GluD2-Lc-(HS1)GluN1 and GluD2-Lc-(HS2)GluN1 constructs. GluD2-Lc-(H)GluN1 was then produced from these by another overlap extension PCR. Complementary RNA (cRNA) for injection into oocytes was synthesised from 1 μg of linearised template DNA with the mMESSAGE mMACHINE in vitro transcription kit (Ambion, Austin, TX, USA).
(§2) Oocytes were obtained by surgically removing parts of the ovaries from Xenopus laevis (Nasco, Fort Atkinson, WI, USA) anaesthetised with 1.5 g/L 3-aminobenzoic acid ethylester (Sigma, Taufkirchen, Germany). […] Oocytes were injected with 11 ng cRNA (10 ng of each cRNA for co-expression of GluN1 and GluN2A) using a nanoliter injector (WPI, Sarasota, FL, USA). Four days after cRNA injection, current responses were recorded under voltage clamp at –70 mV with a Turbo Tec-10CD amplifier (npi electronic, Tamm, Germany) controlled by Patchmaster software (HEKA, Lambrecht, Germany). Currents were filtered with a 20 Hz low-pass filter and then digitised with a sampling rate of 50 Hz. Recording electrodes were pulled from borosilicate glass (Hilgenberg, Malsfeld, Germany) with an L/M-3P-A vertical pipette puller (List-Medical), filled with 3 M KCl, and had resistances of 0.5–5 MΩ (voltage electrode) or 0.5–1.5 MΩ (current electrode). Recordings were performed in a 50 μL chamber under constant superfusion with extracellular solution at a flow rate of 3–5 mL/min. […] Finally, Ba-NFR and then NMDGR were applied again to check for reversibility.

The next assay addresses T2, GluD2-Lc(Y496F) (Rattus norvegicus, UniProt Q63226, A654T/Y496F).
T2 construct: the function of full-length receptors as well, we introduced them into the GluD2 lurcher mutant (GluD2-Lc); expressed in transfected cells; host or cells: Xenopus laevis oocytes injected with cRNA
T2 sequence (Q63226 24-1007 Y496F/A654T): T1 sequence (Q63226 24-1007 A654T/A686S) with Y473F, S663A
The assay is described as above. The format is cell-based. To be noted: fraction of spontaneous current inhibited by saturating D-serine.
From the text: as §1, §2

Numbering of substitutions follows the chain as printed.

These results are taken from article PMC5384001 (Scientific Reports, 2017).

Regarding `N[C@H](CO)C(=O)O` [D-serine], the Kd (usually the equilibrium constant for the complex coming apart) on GluN3B LBD was 0.163 µM. Also, in the assay on parallel fiber EPSCs, the EC50 (usually the concentration needed to bring the measured effect to its halfway point) is 147 µM. Further, the “D-serine efficacy Mean ± SEM” value at GluD2-Lc(A686S) turned out to be 43.9 ± 0.7%; on GluD2-Lc(Y496F) it was 43.5 ± 2.0%.
